Experimental findings from paper PMC10824666 (Nature Cancer, 2023) are described below.

Structures are written as SMILES. Like-named read-outs stand apart in the source and are kept apart here.

Assay in all cases: biochemical
Set-up in all cases: Eurofins DiscoverX kinase panel, competitive binding assay at 1 uM, percent of DMSO control
What all share (conditions): competitive binding, percent of DMSO control

Test [1] deals with WEE1 (Homo sapiens, UniProt P30291). The method in brief: (§1)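 Single-point profiling at 1 µM compound in a competition-binding format against 96 kinases, read out as POC relative to control; n = 1.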
The target of test [2] is T1, TAOK2 (Homo sapiens, UniProt Q9UL54).
T1 sequence (Q9UL54 1-1235): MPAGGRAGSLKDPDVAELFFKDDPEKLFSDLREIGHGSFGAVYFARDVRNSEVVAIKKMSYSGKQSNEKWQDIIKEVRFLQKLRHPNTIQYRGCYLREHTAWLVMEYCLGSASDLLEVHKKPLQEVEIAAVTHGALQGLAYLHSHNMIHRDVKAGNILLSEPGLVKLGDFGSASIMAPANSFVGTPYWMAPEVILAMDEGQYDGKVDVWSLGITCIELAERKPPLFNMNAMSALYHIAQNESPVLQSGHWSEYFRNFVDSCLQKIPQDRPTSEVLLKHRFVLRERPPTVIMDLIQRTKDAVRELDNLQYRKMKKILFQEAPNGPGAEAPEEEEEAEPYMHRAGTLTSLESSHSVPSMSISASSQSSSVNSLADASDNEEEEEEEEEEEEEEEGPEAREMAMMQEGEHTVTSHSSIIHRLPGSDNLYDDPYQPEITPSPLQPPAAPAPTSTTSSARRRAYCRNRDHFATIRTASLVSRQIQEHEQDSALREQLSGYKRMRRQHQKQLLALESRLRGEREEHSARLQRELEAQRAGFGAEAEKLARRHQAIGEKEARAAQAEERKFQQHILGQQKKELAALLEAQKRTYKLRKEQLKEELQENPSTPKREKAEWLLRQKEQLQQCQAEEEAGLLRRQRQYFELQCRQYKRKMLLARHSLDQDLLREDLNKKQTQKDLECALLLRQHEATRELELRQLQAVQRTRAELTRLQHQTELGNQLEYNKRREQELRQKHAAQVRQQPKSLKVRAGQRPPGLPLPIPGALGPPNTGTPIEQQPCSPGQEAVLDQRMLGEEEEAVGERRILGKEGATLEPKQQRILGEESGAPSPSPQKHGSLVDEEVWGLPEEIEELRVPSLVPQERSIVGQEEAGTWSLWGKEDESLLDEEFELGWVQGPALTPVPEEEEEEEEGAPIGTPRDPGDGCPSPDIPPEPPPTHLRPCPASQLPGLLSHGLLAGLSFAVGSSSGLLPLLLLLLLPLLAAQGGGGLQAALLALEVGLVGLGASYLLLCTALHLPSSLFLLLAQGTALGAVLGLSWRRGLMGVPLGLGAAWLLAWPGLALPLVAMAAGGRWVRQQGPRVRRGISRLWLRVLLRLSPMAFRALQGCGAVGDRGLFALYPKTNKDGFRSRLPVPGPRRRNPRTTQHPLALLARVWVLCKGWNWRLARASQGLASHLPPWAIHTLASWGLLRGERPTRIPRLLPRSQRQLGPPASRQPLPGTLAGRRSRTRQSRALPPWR
The method in brief:
as §1

Test [3] concerns the target T2, Abl_unphos (Homo sapiens, UniProt P00519).
T2 construct: gene ABL1; non-phosphorylated
The method in brief:
as §1

The mark [4] stands for this setting: read-out: Kinome Profiling performed by Eurofins DiscoverX / AM-0277, 1.0 µM / POC.
The mark [5] stands for this setting: read-out: Kinome Profiling performed by Eurofins DiscoverX / AM-1882, 1.0 µM / POC.
The mark [6] stands for this setting: read-out: Kinome Profiling performed by Eurofins DiscoverX / AM-5308, 1.0 µM / POC.

T2 sequence (P00519 whole entry): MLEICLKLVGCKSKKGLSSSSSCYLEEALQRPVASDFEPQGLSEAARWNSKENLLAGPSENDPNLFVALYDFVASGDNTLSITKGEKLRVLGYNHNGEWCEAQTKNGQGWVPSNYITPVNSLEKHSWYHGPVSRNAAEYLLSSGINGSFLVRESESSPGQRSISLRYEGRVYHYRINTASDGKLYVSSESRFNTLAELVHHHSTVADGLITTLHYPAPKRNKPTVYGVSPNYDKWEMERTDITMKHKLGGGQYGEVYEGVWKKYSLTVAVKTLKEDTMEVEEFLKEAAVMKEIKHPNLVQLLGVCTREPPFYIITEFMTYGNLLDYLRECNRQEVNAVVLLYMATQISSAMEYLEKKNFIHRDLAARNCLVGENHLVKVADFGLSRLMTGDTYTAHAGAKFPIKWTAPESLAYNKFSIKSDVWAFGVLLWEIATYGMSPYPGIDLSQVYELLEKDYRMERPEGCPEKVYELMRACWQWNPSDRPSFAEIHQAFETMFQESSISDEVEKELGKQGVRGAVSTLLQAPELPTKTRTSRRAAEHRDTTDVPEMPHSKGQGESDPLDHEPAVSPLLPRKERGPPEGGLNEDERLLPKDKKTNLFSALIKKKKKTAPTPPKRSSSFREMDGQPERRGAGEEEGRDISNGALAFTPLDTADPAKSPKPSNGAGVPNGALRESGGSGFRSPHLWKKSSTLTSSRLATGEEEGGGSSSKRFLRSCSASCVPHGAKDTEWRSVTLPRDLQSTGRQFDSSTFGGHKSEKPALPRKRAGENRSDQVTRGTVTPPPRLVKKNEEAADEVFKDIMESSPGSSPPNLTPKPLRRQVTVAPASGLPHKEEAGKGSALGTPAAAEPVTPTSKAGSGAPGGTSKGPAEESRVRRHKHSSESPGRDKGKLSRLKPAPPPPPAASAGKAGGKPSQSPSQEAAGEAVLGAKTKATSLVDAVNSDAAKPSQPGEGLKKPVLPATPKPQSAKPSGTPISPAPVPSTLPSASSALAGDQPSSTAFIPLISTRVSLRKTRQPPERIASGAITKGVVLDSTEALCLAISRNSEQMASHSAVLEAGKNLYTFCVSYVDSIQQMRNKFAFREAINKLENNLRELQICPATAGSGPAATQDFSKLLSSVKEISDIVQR
Sequence of WEE1 (P30291 whole entry): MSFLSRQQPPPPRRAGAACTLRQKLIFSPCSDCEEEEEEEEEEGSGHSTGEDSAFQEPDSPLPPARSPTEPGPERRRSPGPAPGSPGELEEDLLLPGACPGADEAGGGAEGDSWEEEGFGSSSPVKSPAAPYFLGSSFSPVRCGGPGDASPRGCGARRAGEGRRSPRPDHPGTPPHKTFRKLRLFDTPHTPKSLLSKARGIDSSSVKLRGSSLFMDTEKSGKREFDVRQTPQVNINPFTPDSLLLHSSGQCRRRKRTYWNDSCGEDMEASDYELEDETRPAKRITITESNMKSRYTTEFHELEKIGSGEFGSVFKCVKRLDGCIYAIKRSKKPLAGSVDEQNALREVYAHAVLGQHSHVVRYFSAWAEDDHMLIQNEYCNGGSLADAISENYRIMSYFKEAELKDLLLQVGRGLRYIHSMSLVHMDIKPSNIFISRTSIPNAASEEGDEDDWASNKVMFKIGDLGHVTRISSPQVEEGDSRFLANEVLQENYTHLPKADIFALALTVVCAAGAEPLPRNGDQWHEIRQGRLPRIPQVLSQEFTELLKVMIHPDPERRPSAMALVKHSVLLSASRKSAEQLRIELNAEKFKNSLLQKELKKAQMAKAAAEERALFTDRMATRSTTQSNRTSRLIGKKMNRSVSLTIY

Regarding `CC(C)(CO)Nc1ccc(C(=O)Nc2cccc(S(=O)(=O)C3CCCC3)c2)c(N2CCC3(CC2)CC3)n1` [AM-0277], the remaining activity at 1 µM in test [1] (setting [4]) was 100%; in test [2] (setting [4]) it was 98%; in test [3] (setting [4]), 100%.
As for `CC(C)(C)NS(=O)(=O)c1cccc(NC(=O)c2ccc(S(=O)(=O)NC(C)(C)C)cc2N2CCC3(CC2)CC3)c1` [AM-1882], the remaining activity at 1 µM amounted to 50% in test [1] (setting [5]), 81.5% in test [2] (setting [5]) and 58% in test [3] (setting [5]).
`C[C@@H]1CN(c2cccc(NC(=O)c3ccc(NS(=O)(=O)CCO)cc3N3CCC4(CC3)CC4)n2)CCO1` [AM-5308]: the remaining activity at 1 µM was 100% in test [1] (setting [6]), 81% in test [2] (setting [6]) and 93% in test [3] (setting [6]).
